ChEMBL document CHEMBL4813922, “Discovery of a novel small-molecule inhibitor of Fam20C that induces apoptosis and inhibits migration in triple negative breast cancer” (Eur J Med Chem, 2021)
Activity calls are given as the source filed them. No cut-off for these calls is given here.

Assays:
MDA-MB-468 = test: Antiproliferative activity against human MDA-MB-468 cells measured by MTT assay; type: functional, cell-based
MCF7 = test: Antiproliferative activity against human MCF7 cells measured by MTT assay; type: functional, cell-based
[1] = molecular target: T1, Extracellular serine/threonine protein kinase FAM20C (Homo sapiens) (UniProt Q8IXL6); test: Inhibition of Fam20C (unknown origin) assessed as reduction in inorganic phosphate release in presence of ATP at 10 uM measured by Malachite green phosphate staining based micro plate reader assay relative to control
T1 sequence (whole entry): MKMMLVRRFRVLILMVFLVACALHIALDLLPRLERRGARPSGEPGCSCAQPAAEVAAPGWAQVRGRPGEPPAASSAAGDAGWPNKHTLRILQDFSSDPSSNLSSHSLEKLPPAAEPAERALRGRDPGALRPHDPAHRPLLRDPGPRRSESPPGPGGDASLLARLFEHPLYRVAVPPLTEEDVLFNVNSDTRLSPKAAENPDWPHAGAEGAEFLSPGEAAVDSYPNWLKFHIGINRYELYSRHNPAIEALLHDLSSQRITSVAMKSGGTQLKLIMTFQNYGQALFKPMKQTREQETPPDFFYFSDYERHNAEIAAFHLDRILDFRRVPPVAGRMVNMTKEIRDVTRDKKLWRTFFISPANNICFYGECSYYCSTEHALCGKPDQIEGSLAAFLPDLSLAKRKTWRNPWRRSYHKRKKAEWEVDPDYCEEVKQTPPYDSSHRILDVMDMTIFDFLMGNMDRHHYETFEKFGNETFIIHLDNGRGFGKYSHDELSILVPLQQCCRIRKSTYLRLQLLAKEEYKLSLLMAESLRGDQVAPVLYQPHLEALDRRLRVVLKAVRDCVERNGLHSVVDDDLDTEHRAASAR

MDA-MB-231 [2] = test: Antiproliferative activity against human MDA-MB-231 cells measured by MTT assay; type: functional, cell-based
MDA-MB-231 [3] = test: Induction of apoptosis in human MDA-MB-231 cells assessed as late apoptotic cells at 2.5 uM measured after 24 hrs by Annexin V-FITC/PI staining based flow cytometry (reference value: 3.02%); type: functional
MDA-MB-231 [4] = test: Induction of apoptosis in human MDA-MB-231 cells assessed as downregulation of Bcl-2 protein expression at 2.5 to 5 uM measured after 24 hrs by western blot assay; type: functional, cell-based; conditions: dose 2.5-5 µM
MDA-MB-231 [5] = test: Inhibition of cell migration in human MDA-MB-231 cells assessed as decrease in wound closure at 2.5 uM measured after 24 hrs by scratch assay; type: functional, cell-based
MDA-MB-231 [6] = test: Antitumour activity against human MDA-MB-231 cells xenografted in Balb/c mouse assessed as downregulation of Bcl-2 protein expression in tumor at 25 to 50 mg/kg, ig measured after 14 days by western blot method; type: functional, organism-based; conditions: dose 25-50 mg/kg, time 14.0 day
MDA-MB-231 [7] = test: Antitumour activity against human MDA-MB-231 cells xenografted in Balb/c mouse assessed as increase in cleaved caspase 3 level in tumor at 25 to 50 mg/kg, ig measured after 14 days by western blot method; type: functional, organism-based; conditions: dose 25-50 mg/kg, time 14.0 day
MDA-MB-231 [8] = test: Inhibition of colony formation in human MDA-MB-231 cells at 5 uM measured after 2 weeks by crystal violet staining based analysis; type: functional, cell-based
MDA-MB-231 [9] = test: Induction of apoptosis in human MDA-MB-231 cells assessed as upregulation of Bax protein expression at 2.5 to 5 uM measured after 24 hrs by western blot assay; type: functional, cell-based; conditions: dose 2.5-5 µM
MDA-MB-231 [10] = test: Induction of apoptosis in human MDA-MB-231 cells assessed as necrotic cells at 2.5 uM measured after 24 hrs by Annexin V-FITC/PI staining based flow cytometrY (reference value: 0.64%); type: functional
MDA-MB-231 [11] = test: Induction of apoptosis in human MDA-MB-231 cells assessed as early apoptotic cells at 2.5 uM measured after 24 hrs by Annexin V-FITC/PI staining based flow cytometry (reference value: 2%); type: functional
MDA-MB-231 [12] = test: Induction of apoptosis in human MDA-MB-231 cells assessed as viable cells at 2.5 uM measured after 24 hrs by Annexin V-FITC/PI staining based flow cytometry (reference value: 94.3%); type: functional; conditions: read-out: Activity
MDA-MB-231 [13] = test: Inhibition of cell migration in human MDA-MB-231 cells assessed as downregulation of MMP-2 protein expression at 2.5 uM measured after 24 hrs by immunofluorescence assay; type: functional, cell-based
MDA-MB-231 [14] = test: Antitumour activity against human MDA-MB-231 cells xenografted in Balb/c mouse assessed as upregulation of Bax protein expression in tumor at 25 to 50 mg/kg, ig measured after 14 days by western blot method; type: functional, organism-based; conditions: dose 25-50 mg/kg, time 14.0 day
MDA-MB-231 [15] = test: Inhibition of cell migration in human MDA-MB-231 cells assessed as downregulation of MMP-2 protein expression at 2.5 to 5 uM measured after 24 hrs by western blot assay; type: functional, cell-based; conditions: dose 2.5-5 µM
[16] = Toxicity in Balb/c mouse xenografted with human MDA-MB-231 cells assessed as changes in body weight at 25 mg/kg, ig measured after 14 days; type: organism-based; conditions: in vivo, po, 336 h, time 14 day
MDA-MB-231 [17] = test: Inhibition of cell migration in human MDA-MB-231 cells assessed as upregulation of E-cadherin protein expression at 2.5 to 5 uM measured after 24 hrs by western blot assay; type: functional, cell-based; conditions: dose 2.5-5 µM
MDA-MB-231 [18] = test: Induction of apoptosis in human MDA-MB-231 cells assessed as DNA condensation measured after 24 hrs by Hoechst 33258 staining based flourescence microscopic analysis; type: functional, cell-based
MDA-MB-231 [19] = test: Inhibition of cell migration in human MDA-MB-231 cells at 2.5 uM measured after 12 hrs by Transwell assay; type: functional, cell-based
[20] = Toxicity in Balb/c mouse xenografted with human MDA-MB-231 cells assessed as changes in body weight at 50 mg/kg, ig measured after 14 days; type: organism-based; conditions: in vivo, po, 336 h, time 14 day
MDA-MB-231 [21] = test: Induction of apoptosis in human MDA-MB-231 cells assessed as necrotic cells at 5 uM measured after 24 hrs by Annexin V-FITC/PI staining based flow cytometry (reference value: 0.64%); type: functional
MDA-MB-231 [22] = test: Induction of apoptosis in human MDA-MB-231 cells assessed as viable cells at 5 uM measured after 24 hrs by Annexin V-FITC/PI staining based flow cytometry (reference value: 94.3%); type: functional; conditions: read-out: Activity
MDA-MB-231 [23] = test: Induction of apoptosis in human MDA-MB-231 cells assessed as upregulation of cleaved caspase 3 level at 2.5 to 5 uM measured after 24 hrs by western blot assay; type: functional, cell-based; conditions: dose 2.5-5 µM
MDA-MB-231 [24] = test: Antitumour activity against human MDA-MB-231 cells xenografted in Balb/c mouse assessed as reduction in tumor volume at 25 to 50 mg/kg, ig for 14 days; type: functional, organism-based; conditions: dose 25-50 mg/kg, time 14.0 day
MDA-MB-231 [25] = test: Antitumour activity against human MDA-MB-231 cells xenografted in Balb/c mouse assessed as reduction in tumor weight at 25 to 50 mg/kg, ig for 14 days; type: functional, organism-based; conditions: dose 25-50 mg/kg, time 14.0 day
MDA-MB-231 [26] = test: Inhibition of cell migration in human MDA-MB-231 cells assessed as upregulation of E-cadherin protein expression at 2.5 uM measured after 24 hrs by immunofluorescence assay; type: functional, cell-based
MDA-MB-231 [27] = test: Antitumour activity against human MDA-MB-231 cells xenografted in Balb/c mouse assessed as decrease in Ki-67 expression in tumor at 50 mg/kg, ig measured after 14 days by immunohistochemistry method; type: functional, organism-based; conditions: time 14.0 day
MDA-MB-231 [28] = test: Induction of apoptosis in human MDA-MB-231 cells assessed as early apoptotic cells at 5 uM measured after 24 hrs by Annexin V-FITC/PI staining based flow cytometry (reference value: 2%); type: functional
MDA-MB-231 [29] = test: Induction of apoptosis in human MDA-MB-231 cells assessed as late apoptotic cells at 5 uM measured after 24 hrs by Annexin V-FITC/PI staining based flow cytometry (reference value: 3.02%); type: functional
MCF-10A = test: Cytotoxicity against human MCF-10A cells assessed as inhibition of cell proliferation at 0.625 to 40 uM measured by MTT assay; type: cell-based; conditions: dose 0.625-40 µM
[30] = molecular target: T2, Extracellular serine/threonine protein kinase FAM20C (Homo sapiens, UniProt Q8IXL6); test: Inhibition of Fam20C (unknown origin) assessed as reduction in inorganic phosphate release in presence of ATP measured by Malachite green phosphate staining based micro plate reader assay
T2 sequence (Q8IXL6 whole entry): T1 sequence (whole entry)

## Cc1cc(Nc2ccc(F)cc2)nc(Nc2ccc(NS(=O)(=O)c3ccc(C(F)(F)F)cc3)cc2)n1
MDA-MB-468
  IC50: 32.3 µM
MCF7
  IC50: 18 µM
[1]
  inhibition: 24%
MDA-MB-231 [2]
  IC50: 17.5 µM

## COc1cc(C)cc(Cl)c1S(=O)(=O)Nc1ccc(Nc2nc(C)cc(Nc3ccc(F)cc3)n2)cc1
MDA-MB-468
  IC50: > 50 µM
MCF7
  IC50: > 50 µM
[1]
  inhibition: 12%
MDA-MB-231 [2]
  IC50: > 50 µM

## COc1ccc(S(=O)(=O)Nc2ccc(Nc3nc(C)cc(Nc4ccc(OC)c(O)c4)n3)cc2)cc1
MDA-MB-468
  IC50: > 50 µM
MCF7
  IC50: > 50 µM
[1]
  inhibition: 11%
MDA-MB-231 [2]
  IC50: > 50 µM

## COc1ccc(S(=O)(=O)Nc2ccc(Nc3nccc(Nc4cc(OC)c(OC)c(OC)c4)n3)cc2)cc1
MDA-MB-231 [3]
  Activity: 15.3%
MDA-MB-231 [4]
  Activity: Active
MDA-MB-468
  IC50: 10.3 µM
MDA-MB-231 [5]
  inhibition: Active
MCF7
  IC50: 9.7 µM
MDA-MB-231 [6]
  Activity: Active
MDA-MB-231 [7]
  Activity: Active
MDA-MB-231 [8]
  inhibition: Active
MDA-MB-231 [9]
  Activity: Active
MDA-MB-231 [10]
  Activity: 3.23%
MDA-MB-231 [11]
  Activity: 10.7%
[1]
  inhibition: 68%
MDA-MB-231 [12]
  viability at 2.5 µM: 70.8%
MDA-MB-231 [13]
  inhibition: Active
MDA-MB-231 [14]
  Activity: Active
MDA-MB-231 [15]
  inhibition: Active
[16]
  Activity: Non-Toxic
MDA-MB-231 [2]
  IC50: 5.99 µM
MDA-MB-231 [17]
  inhibition: Active
MDA-MB-231 [18]
  Activity: Active
MDA-MB-231 [19]
  inhibition: Active
[20]
  Activity: Non-Toxic
MDA-MB-231 [21]
  Activity: 8.89%
MDA-MB-231 [22]
  viability at 5 µM: 42%
MDA-MB-231 [23]
  Activity: Active
MDA-MB-231 [24]
  Activity: Active
MDA-MB-231 [25]
  Activity: Active
MDA-MB-231 [26]
  inhibition: Active
MDA-MB-231 [27]
  Activity: Active
MDA-MB-231 [28]
  Activity: 15.9%
MDA-MB-231 [29]
  Activity: 33.2%
MCF-10A
  Activity: Non-Toxic
[30]
  IC50: 6.24 µM

## Cc1cc(Nc2ccc(F)cc2)nc(Nc2ccc(NS(=O)(=O)c3ccccc3OC(F)(F)F)cc2)n1
MDA-MB-468
  IC50: 42.2 µM
MCF7
  IC50: > 50 µM
[1]
  inhibition: 23%
MDA-MB-231 [2]
  IC50: 23.8 µM

## COc1ccc(C(=O)Nc2ccc(Nc3nc(C)cc(Nc4cc(OC)c(OC)c(OC)c4)n3)cc2)cc1
MDA-MB-468
  IC50: 3.62 µM
MCF7
  IC50: > 50 µM
[1]
  inhibition: 49%
MDA-MB-231 [2]
  IC50: 7.2 µM
